Patent US20250084095A1, “Aminopyrimidine Derivatives as Cyclin-Dependent Kinase Inhibitors” (Accutar Biotechnology Inc., priority 2023, published 2025)
pIC50: −log10 of the molar value.

Experiments:
[1] = tested on: Phospho-Rb (Ser807/811) in MCF7 cells; test: Phospho-Rb expression inhibition in MCF7 cells quantified by in cell Western; format: cell-based, human; conditions: Homo sapiens, MCF7, 24 h, 24 hours, in cell Western, read-out: MCF7 pRb IC50
Method: MCF7 cells were obtained from American Type Culture Collection (ATCC, HTB-22). MCF7 cells were plated in 96-well plates (VWR #10062-900, or Coming #3904) in 90 μL culture medium at a density of 20,000 cells/well in the DMEM growth medium containing 10%/FBS and 1% Penicillin Streptomycin, and then incubated at 37° C. overnight. The following day, the test compound was administered to the cells by using 1000× compound stock solution prepared in DMSO at various concentrations. 1000× compound stock solution was first diluted in culturing medium to 10×, then 10 μL compound medium was added to each well in the cell plates. After administration of the compound, the cells were then incubated at 37° C. for 24 h. Upon completion, the cells were washed with PBS briefly. 150 μL/well of 4% formaldehyde was added and the plates were incubated at room temperature for 20 min. The cells were washed with PBS briefly, and permeabilized with 150 µL/well of ice cold 100% methanol for 10 min. The cells were washed with PBS briefly and blocked with 100 µL/well LI-COR blocking buffer for 1 h at room temperature with gentle shaking. The cells were incubated overnight at 4° C. with 50 μL primary antibody rabbit anti-Phospho-Rb (Ser807/811) (1: 500, Cell Signaling, #8516) and anti-Rb (1:200, Santa Cruz, sc-73598) diluted in Intercept Blocking Buffer (LI-COR, #927-60001) containing 0.1% Tween 20. The next day, the cells were washed with 200 μL PBS containing 0.1% Tween 20, 5×5 mins at room temperature with gentle shaking, and incubated with 50 μL secondary antibody, IRDye® 800CW Goat anti-Rabbit IgG (1:1000, LI-COR, #926-32211) and FRDye® 680RD Goat anti-Mouse IgG (1:1000, LI-COR, #926-68070), in LI-COR […] blocking buffer with 0.2% Tween 20 for 1 h at room temperature with gentle shaking. The cells were washed with 200 μL PBS containing 0.1% Tween 20, 5×5 min at room temperature with gentle shaking. The cells were washed with PBS for 5 mins. 100 μL fresh PBS was added to each well and the plates were imaged on a LI-COR Odyssey CLX plate reader.
MCF7 cells were obtained from American Type Culture Collection (ATCC, HTB-22). SW1573-CDK6 KO and SW1573-CDK4 KO cells were generated by the CRISPR-Cas9 technology. All cells were plated in 96-well plates (VWR #10062-900, or Corning #3904) in 90 uL culture medium at a density of 20,000 cells/well in the respective growth medium containing 10% FBS and 1% Penicillin Streptomycin, and then incubated at 37° C. overnight. The following day, the test compound was administered to the cells by using 1000× compound stock solution prepared in DMSO at various concentrations. 1000× compound stock solution was first diluted in culturing medium to 10×, then 10 uL compound medium was added to each well in the cell plates. After administration of the compound, the cells were then incubated at 37° C. for 24 hours. Upon completion, the cells were washed with PBS briefly. 150 uL/well of 4% formaldehyde was added and the plates were incubated at room temperature for 20 mins. The cells were washed with PBS briefly, and permeabilized with 150 uL/well of ice cold 100% methanol for 10 mins. The cells were washed with PBS briefly and blocked with 100 uL/well LI-COR blocking buffer for 1 hr at room temperature with gentle shaking. The cells were incubated overnight at 4° C. with 50 uL primary antibody rabbit anti-Phospho-Rb (Ser807/811) (1: 500, Cell Signaling, #8516) and anti-Rb (1:200, Santa Cruz, sc-73598) diluted in Intercept Blocking Buffer (LI-COR, #927-60001) containing 0.1% Tween 20. The next day, the cells were washed with 200 uL PBS containing 0.1% Tween 20, 5×5 mins at room temperature with gentle shaking, and incubated with 50 uL secondary antibody, IRDye® 800CW Goat anti-Rabbit IgG (1:1000, LI-COR, #926-32211) and IRDye®680RD Goat anti-Mouse IgG (1:1000, LI-COR, #926-68070), in LI-COR blocking buffer with 0.2% Tween 20 for 1 hr at room temperature with gentle shaking. […]

[2] = tested on: 22RV1 cells; test: Cell growth inhibition of 22RV1 cells (CellTiter-Glo); format: cell-based; conditions: Homo sapiens, 22Rv1, 120 h, 5 days, CellTiter-Glo, read-out: 22RV1 Cell Growh GI50
Method: For cell growth assay, 22RV1 (ATCC, CRL-2505) cells were seeded in 96-well plates at 1000 cells/well in 90 μl of RPMI1640 growth medium containing 20% FBS and 1% Penicillin Streptomycin, and then incubated at 37° C. overnight. The following day, the test compound was administered to the cells by using 1000× compound stock solution prepared in DMSO at various concentrations. 1000× compound stock solution was first diluted in culturing medium to 10×, then 10 uL compound medium was added to each well in the cell plates. After administration of the compound, the cells were then incubated at 37° C. for 5 days. Upon completion, the plates were equilibrated at room temperature for approximately 10 min. 100 μl of CellTiter-Glo® Reagent (Promega) was added to each well. The plates were then incubated at room temperature for 10 min and luminescence was recorded by EnSpire plate reader (PerkinElmer).
22RV1 cells were obtained from American Type Culture Collection (ATCC, CRL-2505). 22RV1 cells were seeded in 96-well plates at 1000 cells/well in 90 μL of RPMI1640 growth medium containing 10% FBS and 1% Penicillin Streptomycin, and then incubated at 37° C. overnight. The following day, the test compound was administered to the cells by using 1000× compound stock solution prepared in DMSO at various concentrations. […], then 10 uL compound medium was added to each well in the cell plates. After administration of the compound, the cells were then incubated at […] for 5 days. Upon completion, the plates were equilibrated at room temperature for approximately 10 minutes. 100 μL of CellTiter-Glo® Reagent (Promega) was added to each well. The plates were then incubated at room temperature for 10 minutes and luminescence was recorded by EnSpire plate reader (PerkinElmer).

| Compound | pIC50 [1] | GI50 [2] [nM] |
| --- | --- | --- |
| Cc1c(-c2nc(N[C@@H]3C[C@H]4CO[C@H](O4)[C@H]3O)ncc2Cl)sc2cc(C(C)(C)O)cnc12 [Compound 260, (1S,3R,4S,5R)-3-((5-chloro-4-(6-(2-hydroxypropan-2-yl)-3-methylthieno[3,2-b]pyridin-2-yl)pyrimidin-2-yl)amino)-6,8-dioxabicyclo[3.2.1]octan-4-ol] | 6.82 to 7.40 | 120 to 450 |
| CC(C)(O)c1cnc2c(F)cc(-c3nc(N[C@@H]4C[C@H]5CO[C@H](O5)[C@H]4O)ncc3F)cc2c1 [Compound 254, (1S,3R,4S,5R)-3-((5-fluoro-4-(8-fluoro-3-(2-hydroxypropan-2-yl)quinolin-6-yl)pyrimidin-2-yl)amino)-6,8-dioxabicyclo[3.2.1]octan-4-ol] | 6.00 to 6.82 | 120 to 450 |
| CC1OCC(C)n2c1nc1c(F)cc(-c3nc(N[C@@H]4C[C@H]5CO[C@H](O5)[C@H]4O)ncc3Cl)cc12 (stereo partly drawn) [Compound 49, (1S,3R,4S,5R)-3-((5-chloro-4-(9-fluoro-1,4-dimethyl-3,4-dihydro-1H-benzo[4,5]imidazo[2,1-c][1,4]oxazin-7-yl)pyrimidin-2-yl)amino)-6,8-dioxabicyclo[3.2.1]octan-4-ol] | 6.82 to 7.40 | 120 to 450 |
| CC(C)n1c(C(C)(C)O)nc2c(F)cc(-c3nc(N[C@@H]4[C@H](C)[C@H]5CO[C@H](O5)[C@H]4O)ncc3Cl)cc21 [Compound 13, (1S,2S,3R,4S,5R)-3-((5-chloro-4-(4-fluoro-2-(2-hydroxypropan-2-yl)-1-isopropyl-1H-benzo[d]imidazol-6-yl)pyrimidin-2-yl)amino)-2-methyl-6,8-dioxabicyclo[3.2.1]octan-4-ol] | 6.82 to 7.40 | 120 to 450 |
| CC(C)n1c(N2C(=O)OC[C@H]2C)nc2c(F)cc(-c3nc(N[C@@H]4C[C@H]5CO[C@H](O5)[C@H]4O)ncc3Cl)cc21 [Compound 296, (R)-3-(6-(5-chloro-2-(((1S,3R,4S,5R)-4-hydroxy-6,8-dioxabicyclo[3.2.1]octan-3-yl)amino)pyrimidin-4-yl)-4-fluoro-1-isopropyl-1H-benzo[d]imidazol-2-yl)-4-methyloxazolidin-2-one] | 6.00 to 6.82 | 450 to 3000 |
| CC(C)n1c(C(C)(C)C(F)F)nc2c(F)cc(-c3nc(N[C@@H]4C[C@H]5CO[C@H](O5)[C@H]4O)ncc3Cl)cc21 [Compound 169, (1S,3R,4S,5R)-3-((5-chloro-4-(2-(1,1-difluoro-2-methylpropan-2-yl)-4-fluoro-1-isopropyl-1H-benzo[d]imidazol-6-yl)pyrimidin-2-yl)amino)-6,8-dioxabicyclo[3.2.1]octan-4-ol] | 6.82 to 7.40 | ≤ 120 |
| COC(=O)N1CC[C@@H](c2nc3c(F)cc(-c4nc(N[C@@H]5C[C@H]6CO[C@H](O6)[C@H]5O)ncc4Cl)cc3n2C(C)C)C1 [Compound 4, methyl (R)-3-(6-(5-chloro-2-(((1S,3R,4S,5R)-4-hydroxy-6,8-dioxabicyclo[3.2.1]octan-3-yl)amino)pyrimidin-4-yl)-4-fluoro-1-isopropyl-1H-benzo[d]imidazol-2-yl)pyrrolidine-1-carboxylate] | 6.82 to 7.40 | 120 to 450 |
| Cc1c(-c2nc(N[C@@H]3C[C@H]4CO[C@H](O4)[C@H]3O)ncc2F)sc2cc(CN3CCOCC3)n(C)c(=O)c12 [Compound 232, 2-(5-fluoro-2-(((1S,3R,4S,5R)-4-hydroxy-6,8-dioxabicyclo[3.2.1]octan-3-yl)amino)pyrimidin-4-yl)-3,5-dimethyl-6-(morpholinomethyl)thieno[3,2-c]pyridin-4(5H)-one] | 6.00 to 6.82 | 450 to 3000 |
| CC(C)n1c([C@@H]2CCC(F)(F)C2)nc2c(F)cc(-c3nc(N[C@@H]4C[C@H]5CO[C@H](O5)[C@H]4O)ncc3Cl)cc21 [Compound 5, (1S,3R,4S,5R)-3-((5-chloro-4-(2-((R)-3,3-difluorocyclopentyl)-4-fluoro-1-isopropyl-1H-benzo[d]imidazol-6-yl)pyrimidin-2-yl)amino)-6,8-dioxabicyclo[3.2.1]octan-4-ol] | 6.00 to 6.82 | 120 to 450 |
| CC(C)n1c([C@H]2CCOC2)nc2c(F)cc(-c3nc(N[C@@H]4C[C@H]5CO[C@H](O5)[C@H]4O)ncc3Cl)cc21 [Compound 267, (1S,3R,4S,5R)-3-((5-chloro-4-(4-fluoro-1-isopropyl-2-((R)-tetrahydrofuran-3-yl)-1H-benzo[d]imidazol-6-yl)pyrimidin-2-yl)amino)-6,8-dioxabicyclo[3.2.1]octan-4-ol] | 6.82 to 7.40 | 120 to 450 |
| O[C@@H]1[C@@H]2OC[C@H](C[C@H]1Nc1ncc(Cl)c(-c3cc(F)c4ncc(CN5CCOCC5)cc4c3)n1)O2 [Compound 261, (1S,3R,4S,5R)-3-((5-chloro-4-(8-fluoro-3-(morpholinomethyl)quinolin-6-yl)pyrimidin-2-yl)amino)-6,8-dioxabicyclo[3.2.1]octan-4-ol] | 6.00 to 6.82 | 450 to 3000 |
| Cc1c(C(C)(C)O)cnc2c(Cl)cc(-c3nc(N[C@@H]4C[C@H]5CO[C@H](O5)[C@H]4O)ncc3Cl)cc12 [Compound 284, (1S,3R,4S,5R)-3-((5-chloro-4-(8-chloro-3-(2-hydroxypropan-2-yl)-4-methylquinolin-6-yl)pyrimidin-2-yl)amino)-6,8-dioxabicyclo[3.2.1]octan-4-ol] | ≥ 7.40 | ≤ 120 |
| COC(=O)N1CC[C@@H](c2nc3c(F)cc(-c4nc(N[C@@H]5[C@H](C)[C@H]6CO[C@H](O6)[C@H]5O)ncc4Cl)cc3n2C(C)C)C1 [Compound 23, methyl (R)-3-(6-(5-chloro-2-(((1S,2S,3R,4S,5R)-4-hydroxy-2-methyl-6,8-dioxabicyclo[3.2.1]octan-3-yl)amino)pyrimidin-4-yl)-4-fluoro-1-isopropyl-1H-benzo[d]imidazol-2-yl)pyrrolidine-1-carboxylate] | 6.82 to 7.40 | 120 to 450 |
